Assay: Generation of bioluminescence from luciferin borates upon treatment with hydrogen peroxide (luciferase light reaction)
Type: biochemical
Settings: for light signal increase upon addition of hydrogen peroxide (in words): all pH values 6.87 to 9.18
Description: In this example, luciferin borates were incubated with hydrogen peroxide, and luciferin generation was measured using a light reaction catalyzed by luciferase. An increase in light output (bioluminescence) as a result of treatment of the luciferin borates with hydrogen peroxide indicates generation of luciferin as a result of the reaction with hydrogen peroxide.
1 M phosphate solutions (either 6.8 g of KH2PO4 (Fisher) or 11.4 g of K2HPO4 (Sigma) were dissolved in Nanopure water to 1 M) were diluted 1:5 with Nanopure water to produce 200 mM phosphate solutions. 200 mM phosphate buffers at pH 6.87, 7.41, 7.73, 8.04, and 9.18 were prepared. 4 mg/ml solutions of PBI 3048, 4013, 4424 and 4425 (FIG. 1) in DMSO (Fluka 41641) were made from solid powder.
Into two 96-well white, solid bottom luminometer plates (Promega Z3291) (labeled “A” and “B”), 50 μl of 200 mM phosphate buffer pH 6.87 was added to wells A1-H2; 50 μl of 200 mM phosphate pH 7.41 was added to wells A3-H4; 50 μl of 200 mM phosphate buffer pH 7.73 was added to wells A5-H6; 50 μl of 200 mM phosphate buffer pH 8.04 was added to wells A7-H8; and 50 μl of 200 mM phosphate buffer pH 9.18 was added to wells A9-H10.
50 μl of 4 mg/ml PBI 4013 in DMSO was diluted to 1.25 ml with Nanopure water, and 25 μl added to wells A1-D10 of plate A. 50 μl of 4 mg/ml PBI 4424 was diluted to 1.25 ml with Nanopure water, and 25 μl added to E1-H10 of plate A. 50 μl of 4 mg/ml PBI 3048 was diluted to 1.25 ml with Nanopure water, and 25 μl added to A1-D10 of plate B. 50 μl of 4 mg/ml PBI 4425 was diluted to 1.25 ml with Nanopure water, and 25 μl added to E1-H10 of plate B. 25 μl of Nanopure water was added to rows A and E of both plates. 17 μl of Nanopure water was added to rows B and F of both plates; and 8 μl of Nanopure water was added to rows C and G of both plates
A hydrogen peroxide solution (30% hydrogen peroxide, Sigma H1009-5 ml) was diluted to 60 μM hydrogen peroxide with Nanopure water, and 25 μl of the 60 μM hydrogen peroxide was added to rows D and H of both plates; 17 μl of […] hydrogen peroxide was added to rows C and G of both plates; and 8 μl of […] hydrogen peroxide was added to rows B and F of both plates. Both plates A and B were then gently mixed for 70 minutes.
A bottle of Reconstitution Buffer with Esterase (Promega V144B) was thawed and used to reconstitute a Luciferin Detection Reagent (Promega V859B) to create a reconstituted Luciferin Detection Reagent (“LDR”). 15 ml of 1 M HEPES buffer, pH 7.5 was mixed with 25 ml of the LDR, and 80 μl added to wells A1-H10 of two new luminometer plates (“R1” and “R2”).
Following incubation, 20 μl of the contents of wells A1-H10 of plate A was transferred to the same wells in plate R1, and 20 μl of A1-H10 of plate B was transferred to the same wells in plate R2. Plate R1 and R2 were then incubated at room temperature for 15 minutes, and bioluminescence was measured with a GloMax® luminometer (Promega Corp).
Bioluminescence from duplicate wells was averaged, and the average relative light units (RLUs) from samples containing peroxide were compared to those from the samples not containing peroxide incubated at the same pH (Table 1).

[1] = H2O2 0 μM, phosphate buffer pH 6.87, 70 minutes
[2] = H2O2 0 μM, phosphate buffer pH 7.41, 70 minutes
[3] = H2O2 0 μM, phosphate buffer pH 7.73, 70 minutes
[4] = H2O2 0 μM, phosphate buffer pH 8.04, 70 minutes
[5] = H2O2 0 μM, phosphate buffer pH 9.18, 70 minutes
[6] = H2O2 5 μM, phosphate buffer pH 6.87, 70 minutes
[7] = H2O2 5 μM, phosphate buffer pH 7.41, 70 minutes
[8] = H2O2 5 μM, phosphate buffer pH 7.73, 70 minutes
[9] = H2O2 5 μM, phosphate buffer pH 8.04, 70 minutes
[10] = H2O2 5 μM, phosphate buffer pH 9.18, 70 minutes
[11] = H2O2 10 μM, phosphate buffer pH 6.87, 70 minutes
[12] = H2O2 10 μM, phosphate buffer pH 7.41, 70 minutes
[13] = H2O2 10 μM, phosphate buffer pH 7.73, 70 minutes
[14] = H2O2 10 μM, phosphate buffer pH 8.04, 70 minutes
[15] = H2O2 10 μM, phosphate buffer pH 9.18, 70 minutes
[16] = H2O2 15 μM, phosphate buffer pH 6.87, 70 minutes
[17] = H2O2 15 μM, phosphate buffer pH 7.41, 70 minutes
[18] = H2O2 15 μM, phosphate buffer pH 7.73, 70 minutes
[19] = H2O2 15 μM, phosphate buffer pH 8.04, 70 minutes
[20] = H2O2 15 μM, phosphate buffer pH 9.18, 70 minutes

O=C(O)C1CSC(c2nc3ccc(OCc4ccc(B(O)O)c5ccccc45)cc3s2)=N1 (stereo not drawn) [PBI 4013]
average relative light units (bioluminescence) [1]: 421,702 RLU
average relative light units (bioluminescence) [2]: 469,602 RLU
average relative light units (bioluminescence) [3]: 573,023 RLU
average relative light units (bioluminescence) [4]: 585,008 RLU
average relative light units (bioluminescence) [5]: 700,831 RLU
average relative light units (bioluminescence) [6]: 580,978 RLU
average relative light units (bioluminescence) [7]: 760,900 RLU
average relative light units (bioluminescence) [8]: 1,089,717 RLU
average relative light units (bioluminescence) [9]: 1,534,619 RLU
average relative light units (bioluminescence) [10]: 3,678,815 RLU
average relative light units (bioluminescence) [11]: 680,475 RLU
average relative light units (bioluminescence) [12]: 1,020,315 RLU
average relative light units (bioluminescence) [13]: 1,634,356 RLU
average relative light units (bioluminescence) [14]: 2,485,677 RLU
average relative light units (bioluminescence) [15]: 5,433,577 RLU
average relative light units (bioluminescence) [16]: 793,789 RLU
average relative light units (bioluminescence) [17]: 1,282,281 RLU
average relative light units (bioluminescence) [18]: 2,209,227 RLU
average relative light units (bioluminescence) [19]: 3,373,538 RLU
average relative light units (bioluminescence) [20]: 7,062,631 RLU
light signal increase upon addition of hydrogen peroxide (in words): increased strongly

O=C(O)C1CSC(c2nc3ccc(OCc4c(B(O)O)ccc5ccccc45)cc3s2)=N1 (stereo not drawn) [PBI 4424]
average relative light units (bioluminescence) [1]: 17,522 RLU
average relative light units (bioluminescence) [2]: 16,181 RLU
average relative light units (bioluminescence) [3]: 17,087 RLU
average relative light units (bioluminescence) [4]: 18,602 RLU
average relative light units (bioluminescence) [5]: 17,794 RLU
average relative light units (bioluminescence) [6]: 18,952 RLU
average relative light units (bioluminescence) [7]: 17,583 RLU
average relative light units (bioluminescence) [8]: 18,681 RLU
average relative light units (bioluminescence) [9]: 20,935 RLU
average relative light units (bioluminescence) [10]: 22,309 RLU
average relative light units (bioluminescence) [11]: 19,891 RLU
average relative light units (bioluminescence) [12]: 17,508 RLU
average relative light units (bioluminescence) [13]: 19,298 RLU
average relative light units (bioluminescence) [14]: 20,554 RLU
average relative light units (bioluminescence) [15]: 20,333 RLU
average relative light units (bioluminescence) [16]: 20,263 RLU
average relative light units (bioluminescence) [17]: 19,332 RLU
average relative light units (bioluminescence) [18]: 25,729 RLU
average relative light units (bioluminescence) [19]: 21,486 RLU
average relative light units (bioluminescence) [20]: 20,453 RLU
light signal increase upon addition of hydrogen peroxide (in words): much smaller

CC(Oc1ccc2nc(C3=NC(C(=O)O)CS3)sc2c1)c1ccc(B(O)O)cc1 (stereo not drawn) [PBI 4425]
average relative light units (bioluminescence) [1]: 10,464 RLU
average relative light units (bioluminescence) [2]: 10,266 RLU
average relative light units (bioluminescence) [3]: 9,302 RLU
average relative light units (bioluminescence) [4]: 10,312 RLU
average relative light units (bioluminescence) [5]: 9,428 RLU
average relative light units (bioluminescence) [6]: 13,296 RLU
average relative light units (bioluminescence) [7]: 14,549 RLU
average relative light units (bioluminescence) [8]: 13,739 RLU
average relative light units (bioluminescence) [9]: 15,130 RLU
average relative light units (bioluminescence) [10]: 19,728 RLU
average relative light units (bioluminescence) [11]: 14,491 RLU
average relative light units (bioluminescence) [12]: 14,768 RLU
average relative light units (bioluminescence) [13]: 17,086 RLU
average relative light units (bioluminescence) [14]: 19,258 RLU
average relative light units (bioluminescence) [15]: 26,859 RLU
average relative light units (bioluminescence) [16]: 14,105 RLU
average relative light units (bioluminescence) [17]: 14,725 RLU
average relative light units (bioluminescence) [18]: 15,789 RLU
average relative light units (bioluminescence) [19]: 18,905 RLU
average relative light units (bioluminescence) [20]: 24,236 RLU
light signal increase upon addition of hydrogen peroxide (in words): much smaller
